We go through 5 molecules from ChEMBL document CHEMBL1201862, “PubChem BioAssay data set” (2004).

Calls of active or inactive are those of the source.

One assay has as its target T1, X-box-binding protein 1 (Homo sapiens, UniProt P17861).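 Note: confirmatory dose-response counter-screen serving a CHOP assay.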
T1 sequence (P17861 whole entry): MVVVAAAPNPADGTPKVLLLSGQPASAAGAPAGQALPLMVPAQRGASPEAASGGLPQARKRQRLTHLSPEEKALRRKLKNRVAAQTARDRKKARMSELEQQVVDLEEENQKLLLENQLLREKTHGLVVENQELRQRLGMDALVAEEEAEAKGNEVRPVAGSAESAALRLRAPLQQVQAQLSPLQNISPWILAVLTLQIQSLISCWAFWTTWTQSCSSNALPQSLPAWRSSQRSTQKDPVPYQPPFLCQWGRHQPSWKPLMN
The class given is functional, Cricetulus griseus.

Assay [1] addresses Eukaryotic translation initiation factor 4E (Mus musculus, UniProt P63073). The experiment in a line: blockers of eIF4G binding by eIF4E – biochemical, TR-FRET, dose response (AID 855).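 Note: potency for disrupting eIF4E binding to eIF4GI seen as loss of FRET.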 The class given is functional.
A further assay addresses T2, Cytochrome P450 1A2 (Homo sapiens, UniProt P05177).
T2 sequence (P05177 whole entry): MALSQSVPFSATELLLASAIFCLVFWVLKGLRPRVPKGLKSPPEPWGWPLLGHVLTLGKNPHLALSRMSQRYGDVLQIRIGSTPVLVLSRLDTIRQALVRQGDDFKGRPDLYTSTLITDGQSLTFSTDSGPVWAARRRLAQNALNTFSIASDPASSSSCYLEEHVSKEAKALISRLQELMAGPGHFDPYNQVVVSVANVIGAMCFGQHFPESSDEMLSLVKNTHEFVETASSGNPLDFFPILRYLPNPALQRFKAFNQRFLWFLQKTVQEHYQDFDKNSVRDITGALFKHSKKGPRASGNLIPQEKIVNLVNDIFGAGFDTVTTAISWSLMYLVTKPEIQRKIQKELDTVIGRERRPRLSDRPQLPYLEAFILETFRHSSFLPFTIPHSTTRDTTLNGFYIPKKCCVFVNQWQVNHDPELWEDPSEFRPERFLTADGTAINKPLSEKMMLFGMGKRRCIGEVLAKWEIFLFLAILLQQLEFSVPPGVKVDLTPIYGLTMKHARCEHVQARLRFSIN

The next assay deals with BJ. Briefly: BJ-TERT fibroblast viability loss – cell-based, RAS-independent, luminescence, dose response (AID 1933). The conditions noted are these: Homo sapiens. In kind it is functional.
The next assay deals with T3, Protein skinhead-1 (Caenorhabditis elegans, UniProt P34707).
T3 sequence (P34707 whole entry): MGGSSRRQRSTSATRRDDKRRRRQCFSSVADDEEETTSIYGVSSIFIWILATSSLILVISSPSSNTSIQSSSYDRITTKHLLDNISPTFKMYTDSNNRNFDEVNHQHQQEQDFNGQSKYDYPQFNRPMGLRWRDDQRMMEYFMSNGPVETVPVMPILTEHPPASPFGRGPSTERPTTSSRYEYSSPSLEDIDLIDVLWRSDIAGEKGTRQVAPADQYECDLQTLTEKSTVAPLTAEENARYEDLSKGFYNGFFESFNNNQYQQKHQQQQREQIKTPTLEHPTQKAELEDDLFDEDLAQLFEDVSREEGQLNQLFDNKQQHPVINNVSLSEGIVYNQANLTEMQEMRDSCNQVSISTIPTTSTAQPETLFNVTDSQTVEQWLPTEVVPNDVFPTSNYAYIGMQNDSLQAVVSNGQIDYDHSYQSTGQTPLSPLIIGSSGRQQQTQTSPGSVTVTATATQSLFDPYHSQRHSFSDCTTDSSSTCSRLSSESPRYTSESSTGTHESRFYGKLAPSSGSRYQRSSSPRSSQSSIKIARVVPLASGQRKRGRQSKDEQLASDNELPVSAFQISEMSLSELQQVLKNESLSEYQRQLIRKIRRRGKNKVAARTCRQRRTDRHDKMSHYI
The class given is functional.

For assay [2], the target named is Transitional endoplasmic reticulum ATPase (Homo sapiens, UniProt P55072, C522A). The experiment in a line: C522A mutant p97 ATPase inhibitors, dose response, counter-screen for p97 inhibitor project, biochemical, luminescence (AID 1544).
Sequence of Transitional endoplasmic reticulum ATPase (P55072 2-806 C522A limits assumed): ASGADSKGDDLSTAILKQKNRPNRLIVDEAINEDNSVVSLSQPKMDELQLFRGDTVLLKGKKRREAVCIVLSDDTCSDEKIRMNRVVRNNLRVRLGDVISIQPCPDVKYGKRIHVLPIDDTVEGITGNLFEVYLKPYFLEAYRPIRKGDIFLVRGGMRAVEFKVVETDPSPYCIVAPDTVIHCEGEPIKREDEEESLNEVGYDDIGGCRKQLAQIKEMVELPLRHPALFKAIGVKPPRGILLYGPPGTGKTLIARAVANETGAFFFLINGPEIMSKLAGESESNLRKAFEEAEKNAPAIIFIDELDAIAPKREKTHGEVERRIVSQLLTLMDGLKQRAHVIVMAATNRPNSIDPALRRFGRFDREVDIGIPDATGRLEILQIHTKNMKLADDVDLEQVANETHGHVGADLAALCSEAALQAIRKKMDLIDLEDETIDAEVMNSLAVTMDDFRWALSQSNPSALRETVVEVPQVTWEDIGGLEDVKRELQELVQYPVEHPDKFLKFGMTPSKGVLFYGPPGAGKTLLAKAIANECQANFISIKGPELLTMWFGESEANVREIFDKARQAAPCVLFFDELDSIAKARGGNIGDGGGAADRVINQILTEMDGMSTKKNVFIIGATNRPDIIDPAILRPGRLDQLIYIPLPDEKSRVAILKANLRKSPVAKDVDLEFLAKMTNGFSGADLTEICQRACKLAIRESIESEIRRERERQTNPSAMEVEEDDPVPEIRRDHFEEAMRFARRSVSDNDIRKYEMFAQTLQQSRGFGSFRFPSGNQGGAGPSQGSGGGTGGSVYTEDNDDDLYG
The target of assay [3] is Glucose-6-phosphate 1-dehydrogenase (Homo sapiens, UniProt P11413). The experiment in a line: inhibition of Homo sapiens G6PD, dose series – biochemical, fluorescence, selectivity assay for P. falciparum G6PD inhibitor project, dose response (AID 504792). In kind it is functional.
Sequence of Glucose-6-phosphate 1-dehydrogenase (P11413 whole entry): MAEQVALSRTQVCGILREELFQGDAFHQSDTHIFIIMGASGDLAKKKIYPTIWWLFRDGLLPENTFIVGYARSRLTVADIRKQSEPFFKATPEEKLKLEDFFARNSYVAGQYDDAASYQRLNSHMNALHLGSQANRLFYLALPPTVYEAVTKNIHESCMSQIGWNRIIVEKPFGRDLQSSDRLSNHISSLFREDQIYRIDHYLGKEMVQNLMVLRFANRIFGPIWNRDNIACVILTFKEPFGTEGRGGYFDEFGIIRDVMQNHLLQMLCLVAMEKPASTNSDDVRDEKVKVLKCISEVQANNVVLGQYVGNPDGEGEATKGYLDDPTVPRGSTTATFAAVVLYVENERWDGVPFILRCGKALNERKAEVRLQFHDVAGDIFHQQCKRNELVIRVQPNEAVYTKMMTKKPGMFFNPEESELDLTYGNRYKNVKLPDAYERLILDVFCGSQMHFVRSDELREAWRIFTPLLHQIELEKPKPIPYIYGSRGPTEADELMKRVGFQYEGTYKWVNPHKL
The next assay has as its target T4, Hexokinase HKDC1 (Homo sapiens, UniProt Q2TB90).
T4 sequence (Q2TB90 whole entry): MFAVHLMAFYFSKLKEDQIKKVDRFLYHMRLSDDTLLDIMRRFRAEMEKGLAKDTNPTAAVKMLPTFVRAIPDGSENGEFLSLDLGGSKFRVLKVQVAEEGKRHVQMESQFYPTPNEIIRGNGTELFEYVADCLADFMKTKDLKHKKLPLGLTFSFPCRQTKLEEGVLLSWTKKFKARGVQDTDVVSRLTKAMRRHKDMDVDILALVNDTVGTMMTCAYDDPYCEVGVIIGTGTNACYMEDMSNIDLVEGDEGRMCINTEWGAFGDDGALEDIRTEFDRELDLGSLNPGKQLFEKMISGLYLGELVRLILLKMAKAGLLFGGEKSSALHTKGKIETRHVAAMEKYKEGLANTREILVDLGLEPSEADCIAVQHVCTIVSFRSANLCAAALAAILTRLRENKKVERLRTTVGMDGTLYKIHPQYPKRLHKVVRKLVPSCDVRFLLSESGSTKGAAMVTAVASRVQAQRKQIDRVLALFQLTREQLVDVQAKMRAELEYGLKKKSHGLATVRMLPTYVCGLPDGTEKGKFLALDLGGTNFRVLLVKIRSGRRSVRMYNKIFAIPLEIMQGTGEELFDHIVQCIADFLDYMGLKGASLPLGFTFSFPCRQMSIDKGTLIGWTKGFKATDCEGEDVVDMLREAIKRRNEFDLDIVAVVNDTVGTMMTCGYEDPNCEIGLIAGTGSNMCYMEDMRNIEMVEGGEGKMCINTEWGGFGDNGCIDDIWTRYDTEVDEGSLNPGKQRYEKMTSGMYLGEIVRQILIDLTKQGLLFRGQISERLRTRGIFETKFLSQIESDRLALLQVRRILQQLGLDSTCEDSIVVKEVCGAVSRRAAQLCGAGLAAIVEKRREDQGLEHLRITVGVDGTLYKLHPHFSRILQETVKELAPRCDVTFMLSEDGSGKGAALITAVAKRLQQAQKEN
Briefly: SAR analysis of small molecule inhibitors of hexokinase domain containing I (HKDC1). [Related pubchem assays (depositor defined):AID493160, AID493190]. The class given is functional.

Assay [4] concerns the target 1-phosphatidylinositol 4,5-bisphosphate phosphodiesterase gamma-1 (Homo sapiens, UniProt P19174). Briefly: Counterscreen for inhibitors of phospholipase C isozymes (PLC-B3): Fluorescence-based biochemical high throughput dose response assay to identify inhibitors of phospholipase C isozymes (PLC-gamma1). Background: A counterscreen serves to expose hits that act by an unwanted route or on another target.

Assay [5] has as its target 1-phosphatidylinositol 4,5-bisphosphate phosphodiesterase beta-3 (Homo sapiens, UniProt Q01970). Briefly: Fluorescence-based biochemical high throughput dose response assay to identify inhibitors of phospholipase C isozymes (PLC-B3).
Assay [6] concerns the target Dual specificity tyrosine-phosphorylation-regulated kinase 1A (Rattus norvegicus, UniProt Q63470). The class given is biochemical, Homo sapiens.

Sequence of Eukaryotic translation initiation factor 4E (P63073 whole entry): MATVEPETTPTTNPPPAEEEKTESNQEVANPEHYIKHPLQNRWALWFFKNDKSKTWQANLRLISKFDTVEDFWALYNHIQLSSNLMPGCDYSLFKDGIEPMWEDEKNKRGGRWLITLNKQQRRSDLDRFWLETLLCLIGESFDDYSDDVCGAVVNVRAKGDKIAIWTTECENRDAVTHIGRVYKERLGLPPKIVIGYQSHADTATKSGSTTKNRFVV
Sequence of 1-phosphatidylinositol 4,5-bisphosphate phosphodiesterase beta-3 (Q01970 whole entry): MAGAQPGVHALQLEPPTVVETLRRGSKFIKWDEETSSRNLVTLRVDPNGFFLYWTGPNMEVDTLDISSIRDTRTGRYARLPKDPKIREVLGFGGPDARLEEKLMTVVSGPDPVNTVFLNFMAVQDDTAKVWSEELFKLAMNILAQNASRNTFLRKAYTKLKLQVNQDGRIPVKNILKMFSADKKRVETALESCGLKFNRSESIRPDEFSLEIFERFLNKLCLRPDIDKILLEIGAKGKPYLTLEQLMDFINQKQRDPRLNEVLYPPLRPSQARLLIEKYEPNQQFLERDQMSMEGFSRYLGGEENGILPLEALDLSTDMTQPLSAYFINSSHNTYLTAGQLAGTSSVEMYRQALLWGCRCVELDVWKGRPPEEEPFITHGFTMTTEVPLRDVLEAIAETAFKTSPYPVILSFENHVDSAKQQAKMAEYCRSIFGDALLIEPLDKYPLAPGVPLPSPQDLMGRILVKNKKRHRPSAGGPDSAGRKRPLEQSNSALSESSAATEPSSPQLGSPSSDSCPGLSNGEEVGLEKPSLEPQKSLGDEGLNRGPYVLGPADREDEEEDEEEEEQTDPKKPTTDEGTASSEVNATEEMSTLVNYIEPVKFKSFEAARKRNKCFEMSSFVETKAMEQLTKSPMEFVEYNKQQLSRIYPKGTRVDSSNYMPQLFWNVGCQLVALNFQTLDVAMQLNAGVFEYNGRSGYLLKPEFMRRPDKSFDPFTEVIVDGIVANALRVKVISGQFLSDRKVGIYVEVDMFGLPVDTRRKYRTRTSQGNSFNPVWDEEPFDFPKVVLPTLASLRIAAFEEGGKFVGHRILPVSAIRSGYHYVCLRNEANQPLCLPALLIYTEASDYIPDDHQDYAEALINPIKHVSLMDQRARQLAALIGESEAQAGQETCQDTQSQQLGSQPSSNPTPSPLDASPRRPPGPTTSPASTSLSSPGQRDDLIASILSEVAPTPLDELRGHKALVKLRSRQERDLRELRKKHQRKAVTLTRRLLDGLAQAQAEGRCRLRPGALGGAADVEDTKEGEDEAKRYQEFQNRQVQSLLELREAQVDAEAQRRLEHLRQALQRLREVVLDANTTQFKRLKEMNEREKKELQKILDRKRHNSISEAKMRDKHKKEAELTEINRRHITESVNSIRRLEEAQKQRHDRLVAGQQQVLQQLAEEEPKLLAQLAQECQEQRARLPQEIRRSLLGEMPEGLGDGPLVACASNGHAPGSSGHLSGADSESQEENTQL
Sequence of 1-phosphatidylinositol 4,5-bisphosphate phosphodiesterase gamma-1 (P19174 whole entry): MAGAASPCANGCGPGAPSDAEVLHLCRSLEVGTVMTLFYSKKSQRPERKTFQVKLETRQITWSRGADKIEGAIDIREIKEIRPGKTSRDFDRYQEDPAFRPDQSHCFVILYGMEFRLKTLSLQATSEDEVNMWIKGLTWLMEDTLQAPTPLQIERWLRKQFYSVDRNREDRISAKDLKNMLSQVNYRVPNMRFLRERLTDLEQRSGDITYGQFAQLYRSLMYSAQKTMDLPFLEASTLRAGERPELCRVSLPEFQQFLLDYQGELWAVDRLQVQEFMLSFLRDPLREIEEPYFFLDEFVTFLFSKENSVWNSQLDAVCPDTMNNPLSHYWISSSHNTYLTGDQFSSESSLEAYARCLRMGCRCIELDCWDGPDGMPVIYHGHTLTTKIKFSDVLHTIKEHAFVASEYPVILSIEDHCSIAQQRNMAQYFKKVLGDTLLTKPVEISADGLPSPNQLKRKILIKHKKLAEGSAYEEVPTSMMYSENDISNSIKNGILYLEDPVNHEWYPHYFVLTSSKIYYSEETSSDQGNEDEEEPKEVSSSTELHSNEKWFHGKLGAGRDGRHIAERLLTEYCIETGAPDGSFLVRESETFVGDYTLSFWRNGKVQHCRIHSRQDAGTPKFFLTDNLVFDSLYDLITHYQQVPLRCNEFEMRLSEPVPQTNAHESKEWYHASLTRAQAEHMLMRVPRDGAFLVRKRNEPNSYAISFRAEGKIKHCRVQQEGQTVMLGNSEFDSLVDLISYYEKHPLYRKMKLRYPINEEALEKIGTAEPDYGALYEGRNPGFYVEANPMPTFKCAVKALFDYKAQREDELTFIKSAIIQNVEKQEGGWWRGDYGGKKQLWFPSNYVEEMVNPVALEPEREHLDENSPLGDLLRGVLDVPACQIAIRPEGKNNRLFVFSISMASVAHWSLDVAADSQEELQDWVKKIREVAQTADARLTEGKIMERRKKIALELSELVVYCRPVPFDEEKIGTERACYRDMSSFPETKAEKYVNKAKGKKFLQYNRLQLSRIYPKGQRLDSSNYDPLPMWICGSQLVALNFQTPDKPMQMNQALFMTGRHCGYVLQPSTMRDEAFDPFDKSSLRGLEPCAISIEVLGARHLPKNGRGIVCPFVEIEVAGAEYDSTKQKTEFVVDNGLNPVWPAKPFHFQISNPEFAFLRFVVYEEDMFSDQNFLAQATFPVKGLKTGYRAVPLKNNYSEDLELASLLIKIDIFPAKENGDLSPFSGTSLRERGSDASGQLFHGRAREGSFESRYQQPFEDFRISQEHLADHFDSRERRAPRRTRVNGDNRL

As a reminder, the IC50 is the concentration needed to halve the response being measured. As for `CCc1nnc(NS(=O)(=O)c2ccc(NC(=S)NC(=O)/C=C/c3ccc(C(C)C)cc3)cc2)s1`, the “Absolute IC50 (XBP1)” value at X-box-binding protein 1 was 10 µM. For the same molecule, the IC50 in assay [1] is 22.9 µM (active).

One may read the AC50 as the concentration at which the activity in the assay is half-maximal. For orientation: EC50 means the concentration that produces a half-maximal response. As for `O=C(/C=C/c1ccco1)Nc1ccc(Oc2ccccc2)cc1`, the AC50 on Cytochrome P450 1A2 is 20 µM (inconclusive). The EC50 with BJ is on record as > 150 µM (not active). Also, at Protein skinhead-1, the IC50 is > 100 µM (inactive).

Turning to `CC1CC(=O)c2c(cc3c(-c4c(O)cc(O)c5c(O)c6c(cc45)OC(C)CC6=O)c(O)cc(O)c3c2O)O1` (stereo unspecified) [CEPHALOCHROMIN], in assay [2], the IC50 is > 50 µM (not active).

Take `COc1ccc(S(=O)(=O)Nc2cc(SCC(=O)O)c(O)c3ccccc23)cc1`: the values for the IC50 (in assay [3]; at Hexokinase HKDC1) were 21.1 µM (inactive) and 10.5 µM (active), respectively.

With `O=C1C(Nc2ccc(O)cc2)=C/C(=N/S(=O)(=O)c2cccs2)c2ccccc21`, the IC50 in assay [4] was 29.3 µM (inactive); in assay [5], > 40.8 µM (inactive). For the same molecule, the AC50 in assay [6] is 883 nM (active).
